According to publication PMC11480361, “Design of a Cereblon construct for crystallographic and biophysical studies of protein degraders” (Nature Communications, 2024):
“And” between values parts separate entries of the source, which are not always exact repeats. Equal entries are not always repeated.

What was measured:
CRBN^midi [1] = molecular target: T1, CRBN^midi (Homo sapiens, UniProt Q96SW2, C287N/C343E/C78I/DEL188-248/G302D/I92V/INS187GSG/K116N/L342R/L423I/Q134E/R283W/T359I/V293S); experiment: SEC-SAXS of CRBN^midi with binders (radius of gyration); conditions: for Rg, P(r) Analysis from AUTOGNOM / dmax, P(r) analysis / Rg, Guinier analysis: Supplementary Table 3; for Rg, P(r) Analysis from AUTOGNOM: apo 26.91 ± 0.04; for dmax, P(r) analysis: apo 172.46; for Rg, Guinier analysis: binder 400 µM (mezigdomide, lenalidomide) or 200 µM (Boc-VcN, Boc-AcQ), apo 26.73 ± 0.06; for RG of ligand-bound CRBN^midi: 200 µM ligand, apo 26.73 Å; on Rg, Guinier analysis: values in Å; on Rg, P(r) Analysis from AUTOGNOM: values in Å; on dmax, P(r) analysis: values in Å
T1 construct: amino acids 41-187 followed by a Gly-Ser-Gly linker and amino acids 249-426; His6 (N, cleaved yes); made in house; host or cells: E. coli BL21(DE3)
T1 sequence (Q96SW2 with tags, fused parts or gaps with the stated changes limits assumed): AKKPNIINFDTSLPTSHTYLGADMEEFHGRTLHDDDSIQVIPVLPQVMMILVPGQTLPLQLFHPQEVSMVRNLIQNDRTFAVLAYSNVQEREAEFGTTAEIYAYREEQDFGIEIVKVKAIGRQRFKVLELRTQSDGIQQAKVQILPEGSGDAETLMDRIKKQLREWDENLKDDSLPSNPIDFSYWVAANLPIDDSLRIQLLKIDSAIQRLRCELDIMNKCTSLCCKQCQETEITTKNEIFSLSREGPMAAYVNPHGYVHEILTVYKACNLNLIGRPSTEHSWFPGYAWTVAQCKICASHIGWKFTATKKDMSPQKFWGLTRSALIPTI
Description: Frames from SEC-SAXS that corresponded to the main protein peak, were merged using Chromixs[61] and analyzed using the ATSAS (version 3.2.1) package. Radii of gyration and molecular mass were extrapolated from the Guinier plot using Primus. Pairwise-distance distributions were calculated using GNOM[63]. The dimensionless Kratky plot[49] was obtained by manually plotting (qRg)^2I(q)/I0 against qRg.
The open conformation model was obtained by homology modelling using the SWISS-MODEL webserver (accessed April 18th 2023)[65] with the cryo-EM structure of apo-CRBN (PDB ID: 8CVP)[25] as the input structure.

CRBN^midi [2] = molecular target: T1, CRBN^midi; experiment: Thermal denaturation (turbidity, Prometheus Panta) of CRBN^midi +/- binders, Fig. 2f; format: binding; parameters: First derivative: unit not given here; conditions: for increase of Tm / denaturation temperature of CRBN^midi / melting temperature (Tm) of CRBN^midi in presence of binder: 100 µM binder; for increase of Tm / denaturation temperature of CRBN^midi: versus apo; for melting temperature (Tm) of CRBN^midi in presence of binder: apo Tm 44.5 °C; for First derivative: thermal denaturation trace
Description: Protein aggregation was assessed, and turbidity values were calculated by the PR.Panta control software (NanoTemper Technologies). First derivative curves were plotted using Prism software (GraphPad version 10).

[3] = T[°C] 86.7721 lenalidomide, 86.7698 Boc-VcN, 86.7691 Boc-AcQ
[4] = T[°C] 86.8918 lenalidomide, 86.8895 Boc-VcN, 86.8888 Boc-AcQ
[5] = T[°C] 87.0114 lenalidomide, 87.0091 Boc-VcN, 87.0084 Boc-AcQ
[6] = T[°C] 87.1311 lenalidomide, 87.1288 Boc-VcN, 87.1281 Boc-AcQ
[7] = T[°C] 87.2507 lenalidomide, 87.2484 Boc-VcN, 87.2477 Boc-AcQ
[8] = T[°C] 87.3704 lenalidomide, 87.3681 Boc-VcN, 87.3674 Boc-AcQ
[9] = T[°C] 87.49 lenalidomide, 87.4877 Boc-VcN, 87.487 Boc-AcQ
[10] = T[°C] 87.6097 lenalidomide, 87.6074 Boc-VcN, 87.6067 Boc-AcQ
[11] = T[°C] 87.7294 lenalidomide, 87.727 Boc-VcN, 87.7263 Boc-AcQ
[12] = T[°C] 87.849 lenalidomide, 87.8467 Boc-VcN, 87.846 Boc-AcQ
[13] = T[°C] 87.9687 lenalidomide, 87.9664 Boc-VcN, 87.9656 Boc-AcQ
[14] = T[°C] 88.0883 lenalidomide, 88.086 Boc-VcN, 88.0853 Boc-AcQ
[15] = T[°C] 88.208 lenalidomide, 88.2057 Boc-VcN, 88.205 Boc-AcQ
[16] = T[°C] 88.3276 lenalidomide, 88.3253 Boc-VcN, 88.3246 Boc-AcQ
[17] = T[°C] 88.4473 lenalidomide, 88.445 Boc-VcN, 88.4443 Boc-AcQ
[18] = T[°C] 88.567 lenalidomide, 88.5646 Boc-VcN, 88.5639 Boc-AcQ
[19] = T[°C] 88.6866 lenalidomide, 88.6843 Boc-VcN, 88.6836 Boc-AcQ
[20] = T[°C] 88.8063 lenalidomide, 88.8039 Boc-VcN, 88.8032 Boc-AcQ
[21] = T[°C] 88.9259 lenalidomide, 88.9236 Boc-VcN, 88.9229 Boc-AcQ
[22] = T[°C] 89.0456 lenalidomide, 89.0432 Boc-VcN, 89.0425 Boc-AcQ
[23] = T[°C] 89.1653 lenalidomide, 89.1629 Boc-VcN, 89.1622 Boc-AcQ
[24] = T[°C] 89.2849 lenalidomide, 89.2825 Boc-VcN, 89.2818 Boc-AcQ
[25] = T[°C] 89.4046 lenalidomide, 89.4022 Boc-VcN, 89.4015 Boc-AcQ
[26] = T[°C] 89.5242 lenalidomide, 89.5218 Boc-VcN, 89.5211 Boc-AcQ
[27] = T[°C] 89.6439 lenalidomide, 89.6415 Boc-VcN, 89.6408 Boc-AcQ
[28] = T[°C] 89.7635 lenalidomide, 89.7612 Boc-VcN, 89.7604 Boc-AcQ
[29] = T[°C] 89.8832 lenalidomide, 89.8808 Boc-VcN, 89.8801 Boc-AcQ
[30] = T[°C] 90.0028 lenalidomide, 90.0005 Boc-VcN, 89.9997 Boc-AcQ

Row | Rg, P(r) Analysis from AUTOGNOM (CRBN^midi [1]) [Å] | dmax, P(r) analysis (CRBN^midi [1]) [Å] | Rg, Guinier analysis (CRBN^midi [1]) [Å] | RG of ligand-bound CRBN^midi (CRBN^midi [1]) | increase of Tm / denaturation temperature of CRBN^midi (CRBN^midi [2]) [°C] | melting temperature (Tm) of CRBN^midi in presence of binder (CRBN^midi [2]) [°C] | First derivative (CRBN^midi [2]; [3]) | First derivative (CRBN^midi [2]; [4]) | First derivative (CRBN^midi [2]; [5]) | First derivative (CRBN^midi [2]; [6]) | First derivative (CRBN^midi [2]; [7]) | First derivative (CRBN^midi [2]; [8]) | First derivative (CRBN^midi [2]; [9]) | First derivative (CRBN^midi [2]; [10]) | First derivative (CRBN^midi [2]; [11]) | First derivative (CRBN^midi [2]; [12]) | First derivative (CRBN^midi [2]; [13]) | First derivative (CRBN^midi [2]; [14]) | First derivative (CRBN^midi [2]; [15]) | First derivative (CRBN^midi [2]; [16]) | SMILES | other results
1 | 24.25 ± 0.04 | 146.92 | 24.29 ± 0.05 | 24.29 Å and 24.3 Å | 8.3 | 52.8 | -0.02853 | -0.0315 | -0.03497 | -0.03881 | -0.04291 | -0.04716 | -0.05142 | -0.05268 | -0.05356 | -0.05436 | -0.05515 | -0.0559 | -0.05659 | -0.05718 | C[C@H](NC(=O)OC(C)(C)C)C(=O)N[C@H]1CCC(=O)NC1=O [Boc-AcQ, tert-butyl ((S)-1-(((S)-2,6-dioxopiperidin-3-yl)amino)-1-oxopropan-2-yl)carbamate] | First derivative (CRBN^midi [2]; [17]): -0.05764; First derivative (CRBN^midi [2]; [18]): -0.05798; First derivative (CRBN^midi [2]; [19]): -0.05817; First derivative (CRBN^midi [2]; [20]): -0.05821; First derivative (CRBN^midi [2]; [21]): -0.0581; First derivative (CRBN^midi [2]; [22]): -0.05783; First derivative (CRBN^midi [2]; [23]): -0.05741; First derivative (CRBN^midi [2]; [24]): -0.05684; First derivative (CRBN^midi [2]; [25]): -0.05611; First derivative (CRBN^midi [2]; [26]): -0.05525; First derivative (CRBN^midi [2]; [27]): -0.05424; First derivative (CRBN^midi [2]; [28]): -0.05311; First derivative (CRBN^midi [2]; [29]): -0.05186; First derivative (CRBN^midi [2]; [30]): -0.0505
2 | 22.93 ± 0.03 | 137.14 | 23.41 ± 0.05 | 23.41 Å and 23.4 Å | 11.1 | 55.6 | -0.05947 | -0.05823 | -0.05736 | -0.05707 | -0.05755 | -0.05896 | -0.06138 | -0.06805 | -0.07618 | -0.08482 | -0.09355 | -0.1023 | -0.1109 | -0.1196 | CC(C)[C@H](NC(=O)OC(C)(C)C)C(=O)NC1CC(=O)NC1=O (stereo partly drawn) [Boc-VcN, Tert-butyl ((2S)-1-((2,5-dioxopyrrolidin-3-yl)amino)-3-methyl-1-oxobutan-2-yl)carbamate] | First derivative (CRBN^midi [2]; [17]): -0.1282; First derivative (CRBN^midi [2]; [18]): -0.1368; First derivative (CRBN^midi [2]; [19]): -0.1455; First derivative (CRBN^midi [2]; [20]): -0.1543; First derivative (CRBN^midi [2]; [21]): -0.1632; First derivative (CRBN^midi [2]; [22]): -0.1723; First derivative (CRBN^midi [2]; [23]): -0.1815; First derivative (CRBN^midi [2]; [24]): -0.191; First derivative (CRBN^midi [2]; [25]): -0.2007; First derivative (CRBN^midi [2]; [26]): -0.2106; First derivative (CRBN^midi [2]; [27]): -0.2208; First derivative (CRBN^midi [2]; [28]): -0.2313; First derivative (CRBN^midi [2]; [29]): -0.2421; First derivative (CRBN^midi [2]; [30]): -0.2531

Row | SMILES | Rg, P(r) Analysis from AUTOGNOM (CRBN^midi [1]) [Å] | dmax, P(r) analysis (CRBN^midi [1]) [Å] | Rg, Guinier analysis (CRBN^midi [1]) [Å] | RG of ligand-bound CRBN^midi (CRBN^midi [1]) | increase of Tm / denaturation temperature of CRBN^midi (CRBN^midi [2]) [°C] | melting temperature (Tm) of CRBN^midi in presence of binder (CRBN^midi [2]) [°C] | First derivative (CRBN^midi [2]; [3]) | First derivative (CRBN^midi [2]; [4]) | First derivative (CRBN^midi [2]; [5]) | First derivative (CRBN^midi [2]; [6]) | First derivative (CRBN^midi [2]; [7]) | First derivative (CRBN^midi [2]; [8]) | First derivative (CRBN^midi [2]; [9]) | First derivative (CRBN^midi [2]; [10]) | First derivative (CRBN^midi [2]; [11]) | First derivative (CRBN^midi [2]; [12]) | First derivative (CRBN^midi [2]; [13]) | First derivative (CRBN^midi [2]; [14]) | First derivative (CRBN^midi [2]; [15]) | First derivative (CRBN^midi [2]; [16]) | other results
3 | N#Cc1ccc(N2CCN(Cc3ccc(COc4cccc5c4CN([C@H]4CCC(=O)NC4=O)C5=O)cc3)CC2)c(F)c1 [mezigdomide, Mezigdomide] | 22.45 ± 0.04 | 145.02 | 22.79 ± 0.06 |  |  |  |  |  |  |  |  |  |  |  |  |  |  |  |  |  | 
